Consider three molecules from ChEMBL document CHEMBL5614382, “Discovery of a new 1-(phenylsulfonyl)-1H-indole derivative targeting the EphA2 receptor with antiproliferative activity on U251 glioblastoma cell line” (Eur J Med Chem, 2024).

The structures appear in SMILES notation.

Assay [1] addresses T1, Ephrin type-A receptor 3 (Mus musculus, UniProt P29319).
T1 sequence (P29319 whole entry): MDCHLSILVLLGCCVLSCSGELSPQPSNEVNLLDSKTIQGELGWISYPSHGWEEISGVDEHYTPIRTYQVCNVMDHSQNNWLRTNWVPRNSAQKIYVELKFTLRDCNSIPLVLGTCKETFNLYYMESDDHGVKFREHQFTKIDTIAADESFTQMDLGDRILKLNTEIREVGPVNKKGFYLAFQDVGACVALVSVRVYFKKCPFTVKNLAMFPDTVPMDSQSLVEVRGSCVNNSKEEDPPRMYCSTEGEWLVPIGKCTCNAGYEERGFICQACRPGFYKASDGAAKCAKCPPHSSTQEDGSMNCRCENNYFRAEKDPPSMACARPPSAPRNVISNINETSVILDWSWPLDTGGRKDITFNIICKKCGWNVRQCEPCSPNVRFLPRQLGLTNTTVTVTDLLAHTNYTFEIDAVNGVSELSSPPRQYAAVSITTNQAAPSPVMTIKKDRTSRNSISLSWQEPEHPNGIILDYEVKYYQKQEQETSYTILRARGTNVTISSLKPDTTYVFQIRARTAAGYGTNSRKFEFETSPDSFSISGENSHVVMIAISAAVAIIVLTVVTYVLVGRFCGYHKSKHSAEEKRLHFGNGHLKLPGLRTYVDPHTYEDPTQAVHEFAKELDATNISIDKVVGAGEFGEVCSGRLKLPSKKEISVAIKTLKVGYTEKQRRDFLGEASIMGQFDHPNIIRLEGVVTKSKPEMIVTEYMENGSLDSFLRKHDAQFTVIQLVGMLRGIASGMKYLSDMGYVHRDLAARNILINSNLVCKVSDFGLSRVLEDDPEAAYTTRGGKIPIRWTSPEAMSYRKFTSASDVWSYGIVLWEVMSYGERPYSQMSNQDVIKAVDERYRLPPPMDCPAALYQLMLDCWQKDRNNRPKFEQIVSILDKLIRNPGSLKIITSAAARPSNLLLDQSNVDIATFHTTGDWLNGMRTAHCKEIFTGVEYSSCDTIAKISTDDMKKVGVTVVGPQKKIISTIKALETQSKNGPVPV
Briefly: Displacement of biotinylated Fc-tagged ephrin-A1 from recombinant N/C-terminal 6-his tagged mouse EphA3 (Glu21 to His541 residues) preincubated for 1 hr followed by ephrin-A1-Fc addition and measured after 4 to 5 hrs by ELISA assay.

Assay [2] has as its target Ephrin type-A receptor 4 (Mus musculus, UniProt Q03137). Briefly: Displacement of biotinylated Fc-tagged ephrin-A1 from recombinant N/C-terminal 6-his tagged mouse EphA4 (Val20 to Thr547 residues) preincubated for 1 hr followed by ephrin-A1-Fc addition and measured after 4 to 5 hrs by ELISA assay. In general terms: In an ELISA, binding on a coated surface is turned into a signal by an enzyme label.

Assay [3] deals with Ephrin type-A receptor 7 (Mus musculus, UniProt Q61772). Briefly: Displacement of biotinylated Fc-tagged ephrin-A1 from recombinant N/C-terminal 6-his tagged mouse EphA7 (Ala30 to Pro549 residues) preincubated for 1 hr followed by ephrin-A1-Fc addition and measured after 4 to 5 hrs by ELISA assay.
The target of assay [4] is T2, Ephrin type-B receptor 3 (Mus musculus, UniProt P54754).
T2 sequence (P54754 whole entry): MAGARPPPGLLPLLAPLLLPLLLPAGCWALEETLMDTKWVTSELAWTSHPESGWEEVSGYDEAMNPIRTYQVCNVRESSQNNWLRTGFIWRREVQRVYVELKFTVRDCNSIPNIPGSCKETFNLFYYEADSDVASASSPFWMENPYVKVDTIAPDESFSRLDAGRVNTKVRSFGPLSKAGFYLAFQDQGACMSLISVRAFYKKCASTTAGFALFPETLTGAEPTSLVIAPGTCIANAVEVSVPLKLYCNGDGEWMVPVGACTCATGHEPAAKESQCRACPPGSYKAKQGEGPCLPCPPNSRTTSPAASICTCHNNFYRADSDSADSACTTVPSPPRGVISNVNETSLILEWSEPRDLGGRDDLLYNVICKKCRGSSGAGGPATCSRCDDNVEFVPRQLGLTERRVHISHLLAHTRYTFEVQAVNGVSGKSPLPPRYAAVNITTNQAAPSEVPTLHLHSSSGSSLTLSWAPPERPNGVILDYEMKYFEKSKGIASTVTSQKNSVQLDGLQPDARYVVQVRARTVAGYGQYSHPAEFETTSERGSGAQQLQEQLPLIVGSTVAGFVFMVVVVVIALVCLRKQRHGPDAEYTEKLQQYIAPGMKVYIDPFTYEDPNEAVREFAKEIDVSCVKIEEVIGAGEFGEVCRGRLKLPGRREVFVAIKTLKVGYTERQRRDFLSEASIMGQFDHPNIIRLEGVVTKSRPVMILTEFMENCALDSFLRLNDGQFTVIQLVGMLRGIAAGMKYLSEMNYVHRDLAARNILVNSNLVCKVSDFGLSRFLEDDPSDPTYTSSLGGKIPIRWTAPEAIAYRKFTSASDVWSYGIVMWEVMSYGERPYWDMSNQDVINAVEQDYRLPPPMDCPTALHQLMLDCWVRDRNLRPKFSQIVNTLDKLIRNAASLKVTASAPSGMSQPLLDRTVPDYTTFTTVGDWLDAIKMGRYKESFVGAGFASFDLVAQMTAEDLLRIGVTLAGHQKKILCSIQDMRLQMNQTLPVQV
In words: Displacement of biotinylated Fc-tagged ephrin-B1 from recombinant mouse EphB3 (Leu 30 to Thru537 residues) preincubated for 1 hr followed by ephrin-B1-Fc addition and measured after 4 to 5 hrs by ELISA assay.

Chain of Ephrin type-A receptor 7 (Q61772 whole entry): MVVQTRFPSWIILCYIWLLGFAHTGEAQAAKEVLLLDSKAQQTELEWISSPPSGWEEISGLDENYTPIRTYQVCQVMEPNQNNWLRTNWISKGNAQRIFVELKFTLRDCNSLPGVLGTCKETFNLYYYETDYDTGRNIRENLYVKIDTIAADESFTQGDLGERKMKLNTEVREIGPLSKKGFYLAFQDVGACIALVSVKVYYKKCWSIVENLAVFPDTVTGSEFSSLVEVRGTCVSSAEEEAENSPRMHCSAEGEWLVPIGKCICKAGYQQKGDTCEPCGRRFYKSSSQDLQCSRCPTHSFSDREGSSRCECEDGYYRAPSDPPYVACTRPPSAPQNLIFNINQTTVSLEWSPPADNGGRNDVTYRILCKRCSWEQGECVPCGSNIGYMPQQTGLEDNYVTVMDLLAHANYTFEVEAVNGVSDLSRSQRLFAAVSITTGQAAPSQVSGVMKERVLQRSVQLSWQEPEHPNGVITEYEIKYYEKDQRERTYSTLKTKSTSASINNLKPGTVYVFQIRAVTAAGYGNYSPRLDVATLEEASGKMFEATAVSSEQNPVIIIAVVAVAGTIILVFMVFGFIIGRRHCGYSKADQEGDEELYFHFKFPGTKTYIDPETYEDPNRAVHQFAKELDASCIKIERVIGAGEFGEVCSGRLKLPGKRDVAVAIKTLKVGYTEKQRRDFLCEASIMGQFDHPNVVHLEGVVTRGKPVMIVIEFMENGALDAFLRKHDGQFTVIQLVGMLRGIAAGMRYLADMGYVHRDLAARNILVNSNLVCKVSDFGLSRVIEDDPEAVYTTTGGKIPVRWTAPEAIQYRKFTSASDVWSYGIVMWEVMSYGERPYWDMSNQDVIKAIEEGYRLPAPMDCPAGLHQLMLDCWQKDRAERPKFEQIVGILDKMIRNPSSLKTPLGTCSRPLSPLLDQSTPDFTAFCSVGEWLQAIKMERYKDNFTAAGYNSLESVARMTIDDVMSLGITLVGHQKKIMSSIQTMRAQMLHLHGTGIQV
Chain of Ephrin type-A receptor 4 (Q03137 whole entry): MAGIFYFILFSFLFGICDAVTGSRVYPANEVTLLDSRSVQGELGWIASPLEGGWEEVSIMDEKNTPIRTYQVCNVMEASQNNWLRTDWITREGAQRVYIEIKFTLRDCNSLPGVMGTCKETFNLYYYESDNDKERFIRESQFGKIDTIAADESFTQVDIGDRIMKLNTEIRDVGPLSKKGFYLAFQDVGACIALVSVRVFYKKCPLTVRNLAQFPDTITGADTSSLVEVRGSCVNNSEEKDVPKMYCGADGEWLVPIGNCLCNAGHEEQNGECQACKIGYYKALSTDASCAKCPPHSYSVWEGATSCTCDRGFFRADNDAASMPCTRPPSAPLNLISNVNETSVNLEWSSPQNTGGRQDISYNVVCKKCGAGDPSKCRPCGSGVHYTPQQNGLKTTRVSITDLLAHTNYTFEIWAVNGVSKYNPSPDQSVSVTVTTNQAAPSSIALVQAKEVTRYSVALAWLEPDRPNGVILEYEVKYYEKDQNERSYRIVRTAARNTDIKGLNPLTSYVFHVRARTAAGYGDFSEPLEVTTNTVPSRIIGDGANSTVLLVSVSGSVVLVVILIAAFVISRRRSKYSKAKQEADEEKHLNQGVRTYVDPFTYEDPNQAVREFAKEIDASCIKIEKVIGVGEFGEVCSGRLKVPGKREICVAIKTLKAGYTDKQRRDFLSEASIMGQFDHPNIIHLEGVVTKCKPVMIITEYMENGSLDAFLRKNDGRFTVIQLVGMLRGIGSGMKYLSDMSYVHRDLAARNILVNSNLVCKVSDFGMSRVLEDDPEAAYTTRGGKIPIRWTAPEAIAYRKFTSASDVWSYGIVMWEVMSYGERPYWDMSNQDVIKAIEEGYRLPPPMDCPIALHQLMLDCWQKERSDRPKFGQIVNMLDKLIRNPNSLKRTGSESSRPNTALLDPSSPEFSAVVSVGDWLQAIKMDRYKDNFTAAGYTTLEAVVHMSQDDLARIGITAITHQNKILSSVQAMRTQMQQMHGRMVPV

`C[C@H](CCC(=O)N[C@H](CC(=O)O)Cc1cn(S(=O)(=O)c2ccc(C(F)(F)F)cc2)c2ccccc12)[C@H]1CC[C@H]2[C@@H]3CC=C4C[C@@H](O)CC[C@]4(C)[C@H]3CC[C@]12C`: the concentration for half-maximal inhibition (IC50) (commonly the concentration at which inhibition is half-maximal) in assay [1] is 7.6 µM; in assay [2], 4.2 µM; in assay [3], 15 µM; in assay [4], above 30 µM.
On to `C[C@H](CCC(=O)N[C@H](CC(=O)O)Cc1cn(S(=O)(=O)c2ccccc2)c2ccccc12)[C@H]1CC[C@H]2[C@@H]3CC=C4C[C@@H](O)CC[C@]4(C)[C@H]3CC[C@]12C`, for which the 50% inhibitory concentration (IC50) in assay [1] was 11 µM; in assay [2], 6.3 µM; in assay [3], 22 µM; in assay [4] it was above 30 µM.
Taken in the same sequence, the figures for `C[C@H](CCC(=O)N[C@H](CC(=O)O)Cc1c[nH]c2ccccc12)[C@H]1CC[C@H]2[C@@H]3CC=C4C[C@@H](O)CC[C@]4(C)[C@H]3CC[C@]12C` were 4.1 µM, 2.8 µM, 4.5 µM and 9.8 µM.
